Common to all, as to test: NCI tumour cell line growth inhibition, 48 h
In assay [1] the test system is ACHN renal.
Assay [2] deals with CAKI-1 renal.
For assay [3], the system named is COLO 205 colon.
For assay [4], the system named is DU-145 prostate.
In assay [5] the test system is HL-60(TB) leukemia.
Assay [6] concerns HOP-62 NSCLC.
For assay [7], the system named is HT29 colon.
The subject of assay [8] is KM12 colon.
Assay [9] relates to MOLT-4 leukemia.
Assay [10] has as its system NCI-H226 lung.
The subject of assay [11] is RPMI-8226 leukemia.
Assay [12] concerns RXF 393 renal.
In assay [13] the test system is SF-539 CNS.
For assay [14], the system named is SNB-75 CNS.
Assay [15] deals with SR leukemia.
The subject of assay [16] is UACC-257 melanoma.

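Growth conditions: 96-well plates. Treatment: test compound, 48 hours, 5 concentrations. Analysis: linear interpolation between bracketing concentrations; unreached endpoints set to highest concentration. Definition used: TGI = concentration required for complete inhibition of growth.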 Some results are limits rather than exact numbers.

`CC(C)(CN)SCc1ccccc1`: the TGI in assay [1], in [2], in assay [3], in assay [4], in assay [5] and in [6] was greater than 100 µM throughout. Also, the TGI in [7], in assay [8], in [9], in assay [10], in assay [11] and in [12] was greater than 100 µM throughout. Also, the TGI in assay [13], in assay [14], in assay [15] and in assay [16] was greater than 100 µM throughout.
Consider `CCCN(CCC)C(=O)c1c(Cl)c2cccnc2n2c(C)cnc12`, for which the TGI in assay [1] is greater than 100 µM; in assay [2] it was 79.7 µM; in [3] it was greater than 100 µM; in [4] it was greater than 100 µM; in assay [5], 71.7 µM; in assay [6], greater than 100 µM. Besides, the TGI in assay [7], in assay [8], in assay [9], in assay [10], in [11] and in assay [12] was greater than 100 µM throughout. Further, the TGI in [13], in assay [14], in assay [15] and in [16] was greater than 100 µM throughout.
`CC(=O)/C(=C(/Br)I)c1ccccc1`: the TGI in [1] came to 27.6 µM; in assay [2], 6.83 µM; in assay [3], 26.4 µM; in assay [4], 31.4 µM; in assay [5] it was 4.95 µM; in assay [6], 29.7 µM. Moreover, the TGI is 13.8 µM in [7]; 28.2 µM in assay [8]; 20.5 µM in assay [9]; 27.2 µM in [10]; 9.35 µM in [11]; 13.3 µM in [12]. Moreover, the TGI in [13] stood at 47.8 µM; in assay [14], 39.6 µM; in assay [15], 13.5 µM; in assay [16], 25.4 µM.
For `Nc1nc(NCCOCP(=O)(O)O)c(N)c(=O)[nH]1`, the TGI in assay [1], in [2], in [3], in assay [4], in assay [5] and in assay [6] was greater than 100 µM in each case. The TGI in [7], in assay [8], in [9], in assay [10], in assay [11] and in [12] was greater than 100 µM throughout. Further, the TGI in [13], in assay [14], in assay [15] and in assay [16] was greater than 100 µM each time.
For the compound `CC(=O)NC1C(OCc2ccccc2)OC(CO)C(O)C1OCC(=O)N1CCCC1C(=O)NC(CCC(=O)NCCCCCNc1c2ccccc2nc2cccc([N+](=O)[O-])c12)C(N)=O` (stereo unspecified), the TGI in assay [1] amounted to 0.0813 µM; in assay [2], 0.134 µM; in assay [3], 0.039 µM; in assay [4] it was 0.107 µM; in assay [5] it was 3.98 µM; in assay [6], 0.125 µM. In addition, the TGI in assay [7] was determined as 12.5 µM; in assay [8], 0.13 µM; in assay [9], 4.55 µM; in assay [10], 0.514 µM; in assay [11], 0.789 µM; in [12] it was 0.0253 µM. Moreover, the TGI in [13] came to 0.097 µM; in [14], 0.479 µM; in assay [15] it was 5.01 µM; in assay [16], 0.327 µM.
On to `S=C(Nc1cccc(C2(N3CCCCC3)CCCCC2)c1)Nc1cccc(C2(N3CCCCC3)CCCCC2)c1`, for which the TGI is 54 µM in [1]; greater than 100 µM in assay [2]; 37.6 µM in [3]; 80.8 µM in assay [4]; 38.2 µM in [5]; greater than 100 µM in [6]. Also, the TGI in assay [7] came to 66.1 µM; in assay [8], 33.2 µM; in assay [9] it was 42.8 µM; in assay [10], 78.5 µM; in assay [11] it was 30.7 µM; in assay [12], 29.7 µM. In addition, the TGI in assay [13] worked out at 31.3 µM; in [14], 28.6 µM; in assay [15] it was 31.6 µM; in assay [16] it was 33.4 µM.
As for `C=CC[C@H]1[C@H](O[Si](C)(C)C(C)(C)C)C=CC(=O)[C@@H]1CC(=O)OCC`, the TGI in assay [1] turned out to be 27.2 µM; in assay [2], 25.1 µM; in assay [3], 28.6 µM; in assay [4] it was 32.8 µM; in assay [5] it was 24.8 µM; in [6] it was 34.5 µM. In addition, the TGI in [7] was found to be 21.2 µM; in assay [8], 27.2 µM; in assay [9], 48 µM; in assay [10], 29.2 µM; in assay [11], 12.2 µM; in assay [12] it was 25.7 µM. For the same compound, the TGI in assay [13] amounted to 30.8 µM; in assay [14], 30.1 µM; in assay [15], 41.7 µM; in assay [16] it was 17.9 µM.
Take `O=c1c(Sc2ncccn2)c(Sc2ncccn2)cnn1CCl`: the TGI worked out at 5.45 µM in [1]; 5.89 µM in [2]; 4.79 µM in [3]; 9.23 µM in assay [4]; 5 µM in assay [5]; 8.05 µM in assay [6]. Further, the TGI is 4.67 µM in [7]; 29.1 µM in assay [8]; 10.6 µM in assay [9]; greater than 76.8 µM in assay [10]; greater than 20.6 µM in assay [11]; 3.46 µM in assay [12]. For the same compound, the TGI in assay [13] amounted to 4 µM; in assay [14] it was 34.6 µM; in assay [15] it was 12.4 µM; in assay [16], 6.77 µM.
For `NCCC1([N+](=O)[O-])CCNCC1`, the TGI in assay [1], in assay [2], in [3], in assay [4], in [5] and in assay [6] was greater than 100 µM throughout. Also, the TGI in [7], in assay [8], in [9], in assay [10], in assay [11] and in assay [12] was greater than 100 µM throughout. In addition, the TGI in assay [13], in assay [14], in assay [15] and in assay [16] was greater than 100 µM in each case.
As for `CCOP(=O)(OCC)C(=C1C=C(C(C)(C)C)C(=O)C(C(C)(C)C)=C1)P(=O)(OCC)OCC`, the TGI in assay [1] was greater than 3.16 µM; in [2], greater than 6.25 µM; in assay [3], 4.2 µM; in assay [4] it was greater than 10 µM; in [5], greater than 7.36 µM; in assay [6], greater than 10 µM. The TGI in assay [7], in assay [8], in assay [9], in [10], in assay [11] and in assay [12] was greater than 10 µM throughout. Moreover, the TGI in assay [13], in assay [14], in [15] and in assay [16] was greater than 10 µM throughout.
`O=[N+]([O-])c1ccc2[nH]c(O)c(N=NC(=S)Nc3ccccc3)c2c1`: the TGI was 19.5 µM in assay [1]; 15.2 µM in assay [2]; greater than 100 µM in assay [3]; 67.3 µM in [4]; 36.3 µM in assay [5]; 21.8 µM in assay [6]. The TGI was 19 µM in [7]; 27 µM in [8]; greater than 100 µM in assay [9]; 65.4 µM in assay [10]; greater than 100 µM in assay [11]; 26.4 µM in [12]. Further, the TGI in assay [13] was 27.6 µM; in assay [14], 21.5 µM; in assay [15], greater than 100 µM; in assay [16], 27.4 µM.

The values above are taken from PubChem BioAssay (NCI).
